Measurements reported in ChEMBL document CHEMBL3853314, “G-Protein-Coupled Receptor Kinase 2 (GRK2) Inhibitors: Current Trends and Future Perspectives” (J Med Chem, 2016).
Where a name gives a salt, the structure may show the parent alone. Peptide text beside a SMILES is read from it.

What was measured:
[1] = target: G protein-coupled receptor kinase 5 (Bos taurus, UniProt P43249); assay: Inhibition of bovine GRK5 assessed as decrease in phosphorylation of tubulin after 5 mins by SDS-PAGE analysis
G protein-coupled receptor kinase 5 (Bos taurus, UniProt P43249), sequence (P43249 whole entry, the tested form may be a part): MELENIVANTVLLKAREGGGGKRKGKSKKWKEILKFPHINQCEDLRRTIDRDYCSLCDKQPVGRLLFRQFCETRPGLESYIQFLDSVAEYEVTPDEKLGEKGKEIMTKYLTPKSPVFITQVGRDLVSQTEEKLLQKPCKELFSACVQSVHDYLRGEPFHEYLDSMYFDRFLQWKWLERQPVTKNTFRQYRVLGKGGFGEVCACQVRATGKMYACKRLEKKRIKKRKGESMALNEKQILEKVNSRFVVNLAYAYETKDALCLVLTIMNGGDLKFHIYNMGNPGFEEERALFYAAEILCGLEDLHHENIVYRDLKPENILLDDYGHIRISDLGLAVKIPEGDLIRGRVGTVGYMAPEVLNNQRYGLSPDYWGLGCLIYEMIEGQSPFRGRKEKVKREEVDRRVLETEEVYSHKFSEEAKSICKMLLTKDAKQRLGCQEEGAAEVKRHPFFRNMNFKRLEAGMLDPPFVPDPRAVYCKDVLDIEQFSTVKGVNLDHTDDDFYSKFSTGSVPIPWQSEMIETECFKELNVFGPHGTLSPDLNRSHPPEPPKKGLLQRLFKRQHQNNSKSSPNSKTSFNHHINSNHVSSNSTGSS

[2] = target: T1, Rhodopsin kinase GRK1 (Bos taurus, UniProt P28327); assay: Inhibition of bovine GRK1 (1 to 535 residues) assessed as decrease in phosphorylation of tubulin after 5 mins by SDS-PAGE analysis
T1 sequence (P28327 whole entry): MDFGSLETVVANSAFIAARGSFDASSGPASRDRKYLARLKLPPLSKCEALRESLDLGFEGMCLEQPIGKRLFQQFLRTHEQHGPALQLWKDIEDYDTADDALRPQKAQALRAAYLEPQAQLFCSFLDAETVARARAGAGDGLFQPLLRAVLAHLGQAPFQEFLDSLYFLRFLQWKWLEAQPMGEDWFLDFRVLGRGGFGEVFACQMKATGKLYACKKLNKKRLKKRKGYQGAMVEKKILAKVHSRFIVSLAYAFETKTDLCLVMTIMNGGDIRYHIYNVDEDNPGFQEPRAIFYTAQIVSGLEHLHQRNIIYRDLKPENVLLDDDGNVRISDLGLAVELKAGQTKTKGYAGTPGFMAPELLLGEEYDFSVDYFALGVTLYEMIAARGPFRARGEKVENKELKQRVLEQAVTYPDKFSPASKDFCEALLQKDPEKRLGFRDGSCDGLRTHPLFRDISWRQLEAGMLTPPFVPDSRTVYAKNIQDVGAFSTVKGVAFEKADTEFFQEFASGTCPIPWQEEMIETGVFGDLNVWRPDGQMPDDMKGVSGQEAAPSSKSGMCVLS

[3] = Inhibition of PKA (unknown origin) using LRRASLG as substrate incubated for 30 mins by ADP-Glo assay; design: species or system Homo sapiens
[4] = target: T2, Protein kinase C alpha type (Homo sapiens, UniProt P17252); assay: Inhibition of recombinant full-length human N-terminal GST tagged PKCalpha expressed in Baculovirus infected Sf9 insect cells using KRREILSRRPSYR as substrate incubated for 30 mins by ADP-Glo assay
[5] = target: T3, Beta-adrenergic receptor kinase 1 (Bos taurus, UniProt P21146); assay: Inhibition of bovine cerebral cortex GRK2 assessed as decrease in rhodopsin phosphorylation by SDS-PAGE analysis
T3 sequence (P21146 whole entry): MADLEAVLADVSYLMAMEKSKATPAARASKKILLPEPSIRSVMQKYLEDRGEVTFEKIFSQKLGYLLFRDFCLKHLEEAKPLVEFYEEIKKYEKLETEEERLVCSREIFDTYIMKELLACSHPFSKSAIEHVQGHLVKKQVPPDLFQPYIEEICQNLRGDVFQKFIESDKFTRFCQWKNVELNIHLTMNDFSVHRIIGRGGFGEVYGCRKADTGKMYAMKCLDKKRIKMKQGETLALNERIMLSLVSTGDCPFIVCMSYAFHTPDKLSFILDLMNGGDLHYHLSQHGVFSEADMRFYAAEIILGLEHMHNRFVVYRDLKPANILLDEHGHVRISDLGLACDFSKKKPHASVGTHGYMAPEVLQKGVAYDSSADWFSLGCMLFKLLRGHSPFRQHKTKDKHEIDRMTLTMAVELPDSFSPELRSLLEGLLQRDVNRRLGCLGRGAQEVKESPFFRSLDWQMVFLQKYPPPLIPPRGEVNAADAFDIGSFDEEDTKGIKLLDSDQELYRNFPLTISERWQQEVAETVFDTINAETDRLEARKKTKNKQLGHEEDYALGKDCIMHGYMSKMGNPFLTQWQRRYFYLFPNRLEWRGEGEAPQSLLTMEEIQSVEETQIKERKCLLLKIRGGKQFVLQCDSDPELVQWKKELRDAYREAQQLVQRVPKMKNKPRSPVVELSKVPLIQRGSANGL

[6] = Inhibition of human PKA catalytic subunit
[7] = target: Beta-adrenergic receptor kinase 1 (Homo sapiens, UniProt P25098, S670A); assay: Inhibition of human GRK2 S670A mutant assessed as decrease in phosphorylation of light-activated bovine rod outer segments after 5 mins by SDS-PAGE analysis
Beta-adrenergic receptor kinase 1 (Homo sapiens, UniProt P25098, S670A), sequence (P25098 whole entry S670A): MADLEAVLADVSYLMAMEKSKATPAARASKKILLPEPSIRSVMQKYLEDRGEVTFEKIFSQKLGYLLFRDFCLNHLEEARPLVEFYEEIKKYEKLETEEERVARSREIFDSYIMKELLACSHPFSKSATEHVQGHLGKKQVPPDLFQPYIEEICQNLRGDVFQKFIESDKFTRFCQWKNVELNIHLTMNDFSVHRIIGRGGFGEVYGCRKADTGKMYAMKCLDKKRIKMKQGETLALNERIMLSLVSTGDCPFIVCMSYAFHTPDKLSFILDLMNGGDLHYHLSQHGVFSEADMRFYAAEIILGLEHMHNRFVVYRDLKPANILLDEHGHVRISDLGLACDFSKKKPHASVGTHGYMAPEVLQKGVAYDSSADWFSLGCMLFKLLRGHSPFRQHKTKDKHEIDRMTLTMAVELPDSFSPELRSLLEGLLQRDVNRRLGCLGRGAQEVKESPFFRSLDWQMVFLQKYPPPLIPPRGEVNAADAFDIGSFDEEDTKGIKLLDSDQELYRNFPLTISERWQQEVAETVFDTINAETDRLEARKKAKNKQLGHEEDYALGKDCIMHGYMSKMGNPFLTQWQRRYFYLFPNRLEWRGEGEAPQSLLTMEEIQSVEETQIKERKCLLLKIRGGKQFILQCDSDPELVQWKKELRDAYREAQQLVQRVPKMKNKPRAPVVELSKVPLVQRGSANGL

[8] = target: T3, Beta-adrenergic receptor kinase 1; assay: Inhibition of bovine cerebral cortex GRK2 assessed as decrease in phosphorylation of beta-adrenoceptor in presence of [gamma-32P]-ATP by SDS-PAGE analysis
[9] = target: Protein kinase C beta type (Homo sapiens, UniProt P05771); assay: Binding affinity to PKCbeta2 (unknown origin) using Lys-Arg-Thr-Leu-Arg-Arg as substrate after 8 mins in presence of [gamma-32P]ATP by liquid scintillation spectrometry
Protein kinase C beta type, sequence (P05771 whole entry, the tested form may be a part): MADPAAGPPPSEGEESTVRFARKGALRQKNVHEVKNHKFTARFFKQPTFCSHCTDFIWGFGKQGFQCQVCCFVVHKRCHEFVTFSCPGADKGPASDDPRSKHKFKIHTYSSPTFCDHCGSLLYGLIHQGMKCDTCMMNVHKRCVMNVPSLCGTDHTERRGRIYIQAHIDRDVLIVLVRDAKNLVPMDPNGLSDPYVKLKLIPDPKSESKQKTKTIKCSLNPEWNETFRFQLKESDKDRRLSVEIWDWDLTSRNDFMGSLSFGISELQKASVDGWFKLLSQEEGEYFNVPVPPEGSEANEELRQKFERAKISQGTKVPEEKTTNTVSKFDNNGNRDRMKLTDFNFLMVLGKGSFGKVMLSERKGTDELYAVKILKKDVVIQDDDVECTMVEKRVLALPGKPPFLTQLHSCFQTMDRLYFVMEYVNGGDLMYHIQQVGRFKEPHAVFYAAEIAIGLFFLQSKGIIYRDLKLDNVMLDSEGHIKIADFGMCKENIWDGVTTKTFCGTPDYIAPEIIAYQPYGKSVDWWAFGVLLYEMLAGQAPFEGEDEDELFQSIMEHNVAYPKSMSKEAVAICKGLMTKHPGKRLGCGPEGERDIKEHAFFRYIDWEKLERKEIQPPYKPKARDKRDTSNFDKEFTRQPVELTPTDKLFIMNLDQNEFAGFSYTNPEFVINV

[10] = target: T1, Rhodopsin kinase GRK1; assay: Inhibition of bovine C-terminal truncated GRK1 (535 residues) assessed as decrease in phosphorylation of urea-washed bovine rod outer segments preincubated for 30 mins followed by ATP addition and light exposure measured after 5 to 10 mins by SDS-PAGE analysis
[11] = target: T2, Protein kinase C alpha type; assay: Binding affinity to PKCalpha (unknown origin) using Lys-Arg-Thr-Leu-Arg-Arg as substrate after 8 mins in presence of [gamma-32P]ATP by liquid scintillation spectrometry
[12] = target: T4, cGMP-dependent protein kinase 1 (Homo sapiens, UniProt Q13976); assay: Binding affinity to human recombinant N-terminal GST-tagged PKGalpha expressed in Baculovirus infected insect Sf9 cells using RKRSRAE as substrate in presence of [gamma-32P]ATP
T4 sequence (Q13976 whole entry): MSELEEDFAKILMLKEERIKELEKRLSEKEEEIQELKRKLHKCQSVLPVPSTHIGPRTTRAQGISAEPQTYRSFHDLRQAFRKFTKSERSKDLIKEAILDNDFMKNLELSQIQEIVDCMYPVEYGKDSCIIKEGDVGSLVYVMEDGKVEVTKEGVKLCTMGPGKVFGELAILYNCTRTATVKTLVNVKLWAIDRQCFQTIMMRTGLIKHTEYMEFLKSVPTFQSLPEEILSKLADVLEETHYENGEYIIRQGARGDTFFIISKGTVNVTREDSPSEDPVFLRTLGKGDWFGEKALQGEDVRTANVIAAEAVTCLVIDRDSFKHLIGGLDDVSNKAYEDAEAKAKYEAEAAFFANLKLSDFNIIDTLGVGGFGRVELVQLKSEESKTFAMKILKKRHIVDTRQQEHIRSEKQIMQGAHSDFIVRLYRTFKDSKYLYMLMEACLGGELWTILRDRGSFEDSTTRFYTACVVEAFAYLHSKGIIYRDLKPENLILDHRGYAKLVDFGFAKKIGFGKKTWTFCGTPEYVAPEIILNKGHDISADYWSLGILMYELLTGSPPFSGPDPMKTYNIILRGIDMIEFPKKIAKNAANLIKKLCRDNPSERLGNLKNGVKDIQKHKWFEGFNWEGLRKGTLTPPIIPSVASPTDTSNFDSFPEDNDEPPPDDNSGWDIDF

[13] = target: G protein-coupled receptor kinase 5 (Homo sapiens, UniProt P34947); assay: Inhibition of recombinant human GRK5 expressed in Sf9 insect cells assessed as decrease in phosphorylation of urea-washed bovine rod outer segments in presence of Gbetagamma subunits and [gamma-32P]-ATP after 5 to 60 mins by SDS-PAGE analysis
G protein-coupled receptor kinase 5 (Homo sapiens, UniProt P34947), sequence (P34947 whole entry): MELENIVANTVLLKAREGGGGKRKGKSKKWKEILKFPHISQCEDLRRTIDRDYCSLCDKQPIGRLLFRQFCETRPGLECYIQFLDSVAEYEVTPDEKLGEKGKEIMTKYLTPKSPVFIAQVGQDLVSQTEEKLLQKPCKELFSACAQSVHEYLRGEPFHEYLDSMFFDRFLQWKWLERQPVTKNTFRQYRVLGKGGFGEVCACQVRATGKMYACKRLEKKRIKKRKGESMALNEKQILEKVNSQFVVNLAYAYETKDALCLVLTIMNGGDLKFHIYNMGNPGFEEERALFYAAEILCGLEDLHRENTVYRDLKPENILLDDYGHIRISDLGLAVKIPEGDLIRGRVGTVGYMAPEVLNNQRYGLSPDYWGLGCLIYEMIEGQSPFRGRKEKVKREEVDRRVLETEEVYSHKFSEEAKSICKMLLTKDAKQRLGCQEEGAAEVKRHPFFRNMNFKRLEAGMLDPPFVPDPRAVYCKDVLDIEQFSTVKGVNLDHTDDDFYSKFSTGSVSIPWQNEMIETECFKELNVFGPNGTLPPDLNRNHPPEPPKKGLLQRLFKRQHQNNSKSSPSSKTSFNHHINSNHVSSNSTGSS

[14] = target: Beta-adrenergic receptor kinase 1 (Bos taurus, UniProt P21146, S670A); assay: Inhibition of bovine GRK2 expressed in Sf9 insect cells assessed as decrease in phosphorylation of urea-washed bovine rod outer segments in presence of Gbetagamma subunits and [gamma-32P]-ATP after 5 to 60 mins by SDS-PAGE analysis
Beta-adrenergic receptor kinase 1 (Bos taurus, UniProt P21146, S670A), sequence (P21146 whole entry S670A): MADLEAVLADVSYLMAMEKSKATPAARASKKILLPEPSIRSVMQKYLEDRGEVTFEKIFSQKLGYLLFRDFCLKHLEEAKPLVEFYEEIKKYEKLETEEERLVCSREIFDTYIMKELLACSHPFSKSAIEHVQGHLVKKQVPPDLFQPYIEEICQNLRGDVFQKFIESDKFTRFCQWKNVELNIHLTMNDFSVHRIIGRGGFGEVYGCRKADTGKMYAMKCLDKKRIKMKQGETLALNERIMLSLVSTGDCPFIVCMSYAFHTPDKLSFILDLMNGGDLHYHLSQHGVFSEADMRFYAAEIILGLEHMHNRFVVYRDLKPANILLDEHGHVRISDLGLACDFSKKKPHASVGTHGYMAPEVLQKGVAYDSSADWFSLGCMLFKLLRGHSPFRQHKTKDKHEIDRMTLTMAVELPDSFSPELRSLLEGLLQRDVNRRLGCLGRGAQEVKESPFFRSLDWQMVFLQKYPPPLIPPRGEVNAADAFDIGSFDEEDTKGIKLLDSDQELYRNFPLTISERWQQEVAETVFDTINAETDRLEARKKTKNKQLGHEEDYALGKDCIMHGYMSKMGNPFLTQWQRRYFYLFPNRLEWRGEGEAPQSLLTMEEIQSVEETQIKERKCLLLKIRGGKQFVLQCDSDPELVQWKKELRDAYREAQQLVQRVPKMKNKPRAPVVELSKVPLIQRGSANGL

[15] = target: T5, G protein-coupled receptor kinase 3 (Bos taurus, UniProt P26818); assay: Inhibition of recombinant bovine GRK3 expressed in Sf9 insect cells assessed as decrease in phosphorylation of urea-washed bovine rod outer segments in presence of Gbetagamma subunits and [gamma-32P]-ATP after 5 to 60 mins by SDS-PAGE analysis
T5 sequence (P26818 whole entry): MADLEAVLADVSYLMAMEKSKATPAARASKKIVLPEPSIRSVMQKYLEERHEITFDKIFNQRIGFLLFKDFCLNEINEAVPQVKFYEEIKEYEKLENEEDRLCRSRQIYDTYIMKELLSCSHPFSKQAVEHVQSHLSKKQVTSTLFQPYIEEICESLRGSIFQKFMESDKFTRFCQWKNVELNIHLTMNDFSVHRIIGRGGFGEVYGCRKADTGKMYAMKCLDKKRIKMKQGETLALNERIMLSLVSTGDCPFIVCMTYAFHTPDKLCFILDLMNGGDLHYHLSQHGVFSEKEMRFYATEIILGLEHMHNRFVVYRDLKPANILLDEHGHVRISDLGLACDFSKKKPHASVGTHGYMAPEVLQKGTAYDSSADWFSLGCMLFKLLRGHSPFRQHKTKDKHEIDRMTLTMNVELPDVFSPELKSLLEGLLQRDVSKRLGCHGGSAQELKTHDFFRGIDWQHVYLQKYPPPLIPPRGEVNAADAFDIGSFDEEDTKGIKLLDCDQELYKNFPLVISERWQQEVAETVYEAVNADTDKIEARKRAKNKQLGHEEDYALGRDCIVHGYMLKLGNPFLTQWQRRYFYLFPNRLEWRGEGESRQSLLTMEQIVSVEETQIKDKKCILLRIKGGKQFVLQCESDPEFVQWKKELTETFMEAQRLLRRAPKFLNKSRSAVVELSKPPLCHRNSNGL

With `CC1=C(C(=O)Nc2ccc3[nH]ncc3c2)C(c2ccc(F)cc2)N=C(c2ccc(C(F)(F)F)cc2)N1` (centres undefined) as the molecule, how does the IC50 [1] read?
The IC50 was 631 µM.

And the IC50 [2]?
Its IC50 is > 1 mM.

What about the IC50 [3] of the same molecule?
The IC50 was 200 µM.

With `Fc1ccc([C@@H]2CCNC[C@H]2COc2ccc3c(c2)OCO3)cc1` [PAROXETINE HYDROCHLORIDE] as the molecule, how does the IC50 [4] read?
The IC50 was 220 µM.

What about the IC50 [3] of the same molecule?
Its IC50 is > 45 µM.

Which results are given for `CC1=C(C(=O)Nc2cc(Cl)c3[nH]ncc3c2)C(c2ccc(C(F)(F)F)cc2)CC(=O)N1` (centres undefined) [GSK-466317A]?
IC50 [2]: 1 mM; IC50 [3]: 12.6 µM

Which IC50 [5] does the source give for `O=S(=O)(O)O[C@H]1[C@H](OS(=O)(=O)O)[C@@H](OS(=O)(=O)O)[C@H](OS(=O)(=O)O)[C@@H](OS(=O)(=O)O)[C@H]1OS(=O)(=O)O` here?
Its IC50 is 0.0135 mM.

Which IC50 [6] does the source give for `Cn1c(CNc2cccc(C(=O)NCc3ccccc3C(F)(F)F)c2)nnc1-c1ccncc1` here?
Its IC50 is > 2000 nM.

For `O=C1NCc2ccc(OC[C@@H]3CNCC[C@H]3c3ccc(F)cc3)cc21`, which IC50 [7] is on record?
Its IC50 is 6.3 µM.

With `CC(C)C[C@H](NC(=O)[C@H](CCCNC(=N)N)NC(=O)[C@H](CCC(=O)O)NC(=O)[C@H](Cc1ccccc1)NC(=O)[C@H](CCCCN)NC(=O)[C@H](C)N)C(=O)N[C@@H](CCC(N)=O)C(=O)N[C@H](C(=O)N[C@H](C(=O)N[C@H](C(=O)N[C@@H](CC(N)=O)C(=O)O)[C@@H](C)O)C(C)C)[C@@H](C)O` (H-AKFERLQTVTN-OH) as the molecule, how does the IC50 [8] read?
The IC50 was 1.6 mM.

With `O=P(O)(O)O[C@@H]1[C@H](O)[C@H](O)[C@@H](O)[C@H](O)[C@H]1O` as the molecule, how does the IC50 [5] read?
The IC50 was 3.6 mM.

Which Kd [9] does the source give for `O=C(N[C@@H]1CNCCC[C@H]1OC(=O)c1cc(O)c(C(=O)c2c(O)cccc2C(=O)O)c(O)c1)c1ccc(O)cc1` [BALANOL] here?
Its Kd is 1.8 nM.

What about the IC50 [10] of the same molecule?
Its IC50 is 4.1 µM.

What about the Kd [11] of the same molecule?
The Kd was 6.4 nM.

And the Kd [12]?
Its Kd is 1.6 nM.

For `CC[C@H](C)[C@H](NC(=O)[C@H](C)NC(=O)[C@@H](NC(=O)[C@@H](N)CCCCN)[C@@H](C)O)C(=O)N[C@@H](C)C(=O)N[C@@H](CCCCN)C(=O)N[C@@H](Cc1ccccc1)C(=O)N[C@@H](CCC(=O)O)C(=O)N[C@@H](CCCNC(=N)N)C(=O)N[C@@H](CC(C)C)C(=O)N[C@@H](CCC(N)=O)C(=O)N[C@H](C(=O)N[C@H](C(=O)N[C@H](C(=O)N[C@@H](CC(N)=O)C(=O)N[C@@H](Cc1ccc(O)cc1)C(=O)N[C@@H](Cc1ccccc1)C(=O)N[C@H](C(=O)N[C@H](C(=O)N[C@@H](CO)C(=O)N[C@@H](CCC(=O)O)C(=O)O)[C@@H](C)O)[C@@H](C)CC)[C@@H](C)O)C(C)C)[C@@H](C)O` (H-KTAIAKFERLQTVTNYFITSE-OH), which IC50 [13] is on record?
Its IC50 is 3.9 µM.

What about the IC50 [14] of the same molecule?
The IC50 was 4.4 µM.

What about the IC50 [15] of the same molecule?
Its IC50 is 6.1 µM.
